Assay results taken from patent US20190216815A1, “COMBINATION THERAPY COMPRISING A POLYUNSATURATED KETONE AND A FOLIC ACID PARTNER” (Avexxin AS, priority 2016, published 2019).

Experiments:
Format in all cases: cell-based
[1] = tested on: LPS-induced IL-1b levels in PBMC; assay: LPS-induced IL-1β production in PBMC (ELISA); conditions: 1 μM MTX alone, 72 hours, 10 ng/mL LPS
Procedure: (§1) Blood was recruited from healthy donors at St. Olays Hospital HF, the Bloodbank. Peripheral blood mononuclear cells (PBMC) were isolated using SepMate™ separation tubes with LymphoPrep density gradient medium according to the STEMCELL Technology recommendations. For experiments, 1×10^6 cells/well/1 mL RPMI medium supplemented with 5% FBS, 0.3 mg/ml glutamine and 0.1 mg/ml gentamicin with or without inhibitors Compound A1, methotrexate hydrate (MTX) (Sigma-Aldrich, #A6770) or a combination of the two inhibitors, prior to the addition of lipopolysaccharides as a potent inducer of inflammation (LPS from E. coli 026:B6 γ-irradiated, Sigma-Aldrich, #L2654). Following treatment (72 hrs., 37° C., 5% CO2), the cell suspensions were centrifuged to isolate the supernatant from the cell fraction. Samples were stored at −80° C. until analysis.
(§2) Cell supernatant samples were analyzed by enzyme-linked immunosorbent assay (EIA) for PGE2 (Cayman #514010), TNF and IL1-β (RnD Systems, DuoSet #DY210 and #DY201) according to the manufacturers protocols. Cell supernatants were assayed at dilutions 1:1 for TNF; 1:10 for IL1-β and 1:100 for PGE2, except supernatants from untreated PBMC (negative control) that were assayed undiluted in all assays. Supernatants were hybridized over-night incubation, enzymatic conversion of substrate were read at OD420 nm. […]

HaCaT cells = assay: Resazurin assay, HaCaT keratinocyte proliferation and viability; conditions: Homo sapiens, 10 μM MTX alone, 24 hours of treatment, read-out: reduction of proliferation and viability of HaCaT cells
Procedure: The spontaneously immortalized, nontumorigenic skin keratinocyte cell line HaCaT was maintained in DMEM supplemented with 5% (v/v) FBS, 0.3 mg/ml glutamine and 0.1 mg/ml gentamicin at 37° C. with 5% CO2 in a humidified atmosphere. Subculture using trypsin-EDTA was performed every 3-4 days with split ratio of 1:3-1:4 to ensure actively proliferating cells. Cells were seeded in 96 well plates in fully supplemented medium at a density of 2500 cells per well. Following 72 hours of cultivation, the cells were starved of serum in 0.25% FBS/DMEM overnight to halt proliferation, synchronize and to increase cell sensitivity to treatment. On day 4, the cells were treated with cPLA2α inhibitor Compound A1 and folic acid analogue methotrexate hydrate (MTX) (Sigma Aldrich #A6770) and left to incubate for […] in incubator at 37° C. with 5% CO2 in a humidified atmosphere before fluorescence was read at 544 nm excitation and 590 nm emission wavelength. The cells were observed under the microscope to evaluate possible morphology changes and signs of stress before addition of resazurin. The experiments were performed in series of 8 wells per treatment and repeated 2-3 times.

[2] = tested on: LPS-induced production of TNF in PBMC; assay: LPS-induced TNF production in PBMC (ELISA); conditions: 1 μM MTX alone, 72 hours, 10 ng/mL LPS
Procedure: as §1, §2

Question: What does the source list for `CN(Cc1cnc2nc(N)nc(N)c2n1)c1ccc(C(=O)N[C@@H](CCC(=O)O)C(=O)O)cc1` [MTX, methotrexate hydrate]?
Answer: reduction of LPS-induced IL-1b levels [1]: ~20%; cytotoxicity at 10 µM (HaCaT cells): ~15%; reduction of LPS-induced TNF levels [2]: ~20%
